Source: ChEMBL document CHEMBL4321806 (J Med Chem, 2019)
The source made the active and inactive calls. No cut-off for these calls is given here.

How the values were obtained:
NIH3T3 = assay: Cytotoxicity against mouse 3T3 cells assessed as reduction in cell viability; type: cell-based
[1] = Cytotoxicity against mouse L929 cells assessed as reduction in cell viability
HFF-1 = assay: Cytotoxicity against human HFF1 cells assessed as reduction in cell viability; type: cell-based
HEK293 [2] = assay: Effect on intracellular topotecan level in human HEK293 cells at 5 uM up to 15 mins by flow cytometric analysis; type: functional, cell-based
Homo sapiens = species on record: Homo sapiens; assay: Effect on BCRP protein expression in human HEK293/R2 cells at 1 to 3 uM after 4 days by flow cytometric analysis; type: functional, cell-based
[3] = molecular target: T1, Broad substrate specificity ATP-binding cassette transporter ABCG2 (Homo sapiens, UniProt Q9UNQ0); assay: Inhibition of vanadate sensitive BCRP ATPase activity in human S1-M1-80 cell membranes preincubated for 30 mins followed by ATP addition and measured after 1 hr by colorimetric assay
T1 sequence (Q9UNQ0 whole entry): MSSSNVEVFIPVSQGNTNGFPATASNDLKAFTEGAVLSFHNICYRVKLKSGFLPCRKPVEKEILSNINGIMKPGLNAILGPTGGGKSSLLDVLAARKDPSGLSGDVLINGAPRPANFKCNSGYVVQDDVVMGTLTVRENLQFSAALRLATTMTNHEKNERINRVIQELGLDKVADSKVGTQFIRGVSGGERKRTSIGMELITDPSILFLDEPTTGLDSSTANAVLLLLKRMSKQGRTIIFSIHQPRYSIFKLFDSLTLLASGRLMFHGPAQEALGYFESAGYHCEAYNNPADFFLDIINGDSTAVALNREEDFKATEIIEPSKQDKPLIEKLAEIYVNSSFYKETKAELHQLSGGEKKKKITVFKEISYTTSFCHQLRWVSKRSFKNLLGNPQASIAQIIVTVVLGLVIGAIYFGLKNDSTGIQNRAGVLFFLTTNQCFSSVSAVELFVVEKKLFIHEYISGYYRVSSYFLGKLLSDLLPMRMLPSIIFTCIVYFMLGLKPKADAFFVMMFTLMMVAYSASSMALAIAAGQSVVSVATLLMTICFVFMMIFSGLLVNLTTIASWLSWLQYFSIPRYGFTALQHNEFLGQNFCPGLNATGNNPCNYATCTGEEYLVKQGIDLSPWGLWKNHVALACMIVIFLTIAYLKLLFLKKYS

[4] = molecular target: T1, Broad substrate specificity ATP-binding cassette transporter ABCG2; assay: Inhibition of BCRP (unknown origin) expressed in human HEK293/R2 cells assessed as increase in intracellular topotecan accumulation by measuring fold change at 1 uM after 120 mins in presence of topotecan by flow cytometry analysis relative to control; details: 2 h
HEK293 [5] = assay: Cytotoxicity against human HEK293 cells assessed as reduction in cell viability after 5 days by MTS/PMS assay; type: cell-based; details: HEK293, 120 h
[6] = Antiproliferative activity against human LCC6 cells assessed as reduction in cell viability after 5 days by MTS/PMS assay; type: functional, cell-based; details: LCC-6, 120 h
2008 = assay: Antiproliferative activity against human 2008 cells assessed as reduction in cell viability after 5 days by MTS/PMS assay; type: functional, cell-based; details: Homo sapiens, 2008, 120 h
[7] = molecular target: T1, Broad substrate specificity ATP-binding cassette transporter ABCG2; assay: Inhibition of BCRP (unknown origin)

| Compound | IC50 (NIH3T3) [µM] | IC50 [1] [µM] | IC50 (HFF-1) [µM] | also measured |
| --- | --- | --- | --- | --- |
| COC(=O)c1cccc(COc2c(-c3ccc(OCCOCCn4cc(COCc5cn(CCOCCOc6ccc(-c7oc8ccccc8c(=O)c7OCc7cccc(C(=O)OC)c7)cc6)nn5)nn4)cc3)oc3ccccc3c2=O)c1 | > 100 | > 100 | > 100 | – |
| COC(=O)c1cccc(COc2c(-c3ccc(OCCOCCn4cc(-c5cccc(-c6cn(CCOCCOc7ccc(-c8oc9ccccc9c(=O)c8OCc8cccc(C(=O)OC)c8)cc7)nn6)c5)nn4)cc3)oc3ccccc3c2=O)c1 | > 100 | > 100 | > 100 | Activity (HEK293 [2]): inactive; Activity (Homo sapiens): inactive; inhibition (INH) [3]: Dose-dependent effect; FC [4]: 11 to 12 |
| O=C1c2c(O)ccc(O)c2C(=O)c2c(NCCNCCO)ccc(NCCNCCO)c21 [MITOXANTRONE] | – | – | – | IC50 (HEK293 [5]): 0.0117 µM; IC50 [6]: 0.0374 µM; IC50 2008: 0.0078 µM |
| COc1cc2c(cc1OC)CN(CCc1ccc(NC(=O)c3cc(OC)c(OC)cc3NC(=O)c3cnc4ccccc4c3)cc1)CC2 | – | – | – | EC50 [7]: 0.1 µM |
| COC(=O)c1cccc(COc2c(-c3ccc(OCCOCCn4cc(CCCc5cn(CCOCCOc6ccc(-c7oc8ccccc8c(=O)c7OCc7cccc(C(=O)OC)c7)cc6)nn5)nn4)cc3)oc3ccccc3c2=O)c1 | > 100 | > 100 | > 100 | – |
| COC(=O)c1cccc(COc2c(-c3ccc(OCCOCCOCCn4cc(-c5cccc(-c6cn(CCOCCOCCOc7ccc(-c8oc9ccccc9c(=O)c8OCc8cccc(C(=O)OC)c8)cc7)nn6)c5)nn4)cc3)oc3ccccc3c2=O)c1 | > 100 | > 100 | > 100 | – |
| COC(=O)c1cccc(COc2c(-c3ccc(OCCOCCn4cc(CN(Cc5ccccc5)Cc5cn(CCOCCOc6ccc(-c7oc8ccccc8c(=O)c7OCc7cccc(C(=O)OC)c7)cc6)nn5)nn4)cc3)oc3ccccc3c2=O)c1 | > 100 | > 100 | > 100 | – |
| COC(=O)c1cccc(COc2c(-c3ccc(OCCOCCOCCn4cc(-c5ccc(-c6cn(CCOCCOCCOc7ccc(-c8oc9ccccc9c(=O)c8OCc8cccc(C(=O)OC)c8)cc7)nn6)cc5)nn4)cc3)oc3ccccc3c2=O)c1 | > 100 | > 100 | > 100 | – |
| COc1ccc2c3c([nH]c2c1)[C@H](C=C(C)C)N1C(=O)[C@@H]2CCCN2C(=O)[C@@H]1C3 [FUMITREMORGIN] | – | – | – | EC50 [7]: 1 to 5 µM |
| COc1ccc2c3c([nH]c2c1)[C@H](CC(C)C)N1C(=O)[C@H](CCC(=O)OC(C)(C)C)NC(=O)[C@@H]1C3 | > 100 | 31.4 | 56.5 | – |
| COC(=O)c1cccc(COc2c(-c3ccc(OCCOCCOCCn4cc(CN(Cc5cn(CCOCCOCCOc6ccc(-c7oc8ccccc8c(=O)c7OCc7cccc(C(=O)OC)c7)cc6)nn5)c5ccccc5)nn4)cc3)oc3ccccc3c2=O)c1 | > 100 | > 100 | > 100 | – |
